Results reported in patent US20100029654A1, “CARDIOVASCULAR COMPOSITIONS AND USE OF THE SAME FOR THE TREATMENT OF ALZHEIMER'S DISEASE” (MOUNT SINAI SCHOOL OF MEDICINE, priority 2006, published 2010).
Where a name gives a salt, the structure may show the parent alone. Read-outs that look alike come from different tables or passages of the source.

Key:
Aβ1-42 [1] = assay: Aβ1-42 content in conditioned medium of primary cortico-hippocampal neuron cultures from Tg2576 mice (ELISA; primary and secondary dose-response screening); assay type: cell-based, mouse; conditions: for activity at 100 µM: Mus musculus, Neuron, 24 h, read-out: Ab1-42 (% of ctl); for activity at 100 µM / Ab1-42 (% of ctl): drug 100 μM; for reducing Aβ1-42: <85% of ctl
Procedure, shortened: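 Primary cortico-hippocampal neurons from embryonic Tg2576 mouse brain were seeded on poly-D-lysine-coated 96-well plates at 1.0×10^5 cells per well in serum-free Neurobasal medium with 2% B27, 0.5 mM L-glutamine and 1% penicillin-streptomycin. For primary screening, duplicate wells received 100 μM drug (1% DMSO final). Vehicle-treated cultures served as controls, and Aβ1-42 in conditioned medium was measured by commercial ELISA.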

[2] = test system: primary cortico-hippocampal neuron cultures; assay: lactate dehydrogenase (LDH) activity assay in parallel neuron cultures; conditions: for LDH at E-5M % of change: drug at E-5M
[3] = test system: primary cortico-hippocampal neuron cultures; assay: MTT in primary screening
Aβ1-40 = Aβ1-40 content in conditioned medium of primary cortico-hippocampal neuron cultures from Tg2576 mice (ELISA; primary and secondary dose-response screening); assay type: cell-based, mouse; conditions: for activity at 100 µM / EC50: Mus musculus; for activity at 100 µM: 24 h, read-out: Ab1-40 (% of ctl); for activity at 100 µM / Ab1-40 (% of ctl): drug 100 μM; for EC50: read-out: EC50 (molar) Aβ1-40; for reduced Aβ1-40: <85% of ctl
Procedure, shortened: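 Primary cortico-hippocampal neurons from embryonic Tg2576 mice were plated at 1.0×10^5 cells per well on poly-D-lysine-coated 96-well plates in Neurobasal with 2% B27, 0.5 mM L-glutamine and 1% penicillin-streptomycin. Cultures received drug in 1% DMSO, and Aβ1-40 in the conditioned medium was measured by BioSource ELISA 24 hours after treatment, relative to vehicle controls.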

Aβ1-42 [4] = assay: Aβ1-42 content in conditioned medium of primary cortico-hippocampal neuron cultures from Tg2576 mice (ELISA; primary and secondary dose-response screening); assay type: cell-based, mouse; conditions: Mus musculus, 24 h; for EC50: Neuron, read-out: EC50 (molar) Aβ1-42; for activity at 100 µM: primary screening, drug 100 μM, Tg2576 neuron cultures, table sorted by Aβ1-42, read-out: Ab1-42 (% of ctl)
[5] = Primary Screening, table sorted by Aβ1-40
[6] = primary screening, Tg2576 neuron cultures, table sorted by Aβ1-42
[7] = primary screening, table sorted by Aβ1-42
[8] = Neuron, Primary Screening, table sorted by Aβ1-40
[9] = Neuron, primary screening, Tg2576 neuron cultures, table sorted by Aβ1-42
[10] = Neuron, secondary dose-response screening 0.01-100 μM, 24 hours
[11] = conditioned medium of primary cortico-hippocampal neuron cultures from Tg2576 embryos, 24 hours after treatment, relative to vehicle (1% DMSO) control
[12] = secondary dose-response screening 0.01-100 μM, 24 hours

Structure (SMILES) | LDH (% of ctl) [2, 5] | LDH at E-5M % of change [2] [%] | LDH (% of ctl) [2, 7] | MTT (% of ctl) [3, 5] | MTT (% of ctl) [3, 7] | EC50 (Aβ1-40; [10]) [nM] | EC50 (Aβ1-42 [4]; [12]) [nM] | EC50 (molar) Aβ1-40 (Aβ1-40; [12]) | activity at 100 µM (Aβ1-42 [1]; [5]) [%] | activity at 100 µM (Aβ1-42 [1]; [6]) [%] | activity at 100 µM (Aβ1-40; [8]) [%] | activity at 100 µM (Aβ1-40; [9]) [%] | reduced Aβ1-40 (Aβ1-40; primary screening) | EC50 (Aβ1-42 [4]; [11]) [nM] | reducing Aβ1-42 (Aβ1-42 [1]; primary screening) | EC50 (molar) Aβ1-40 (Aβ1-40; [11]) | Ab1-42 (% of ctl) (Aβ1-42 [1]; [5]) | activity at 100 µM (Aβ1-40; [6]) [%] | Ab1-40 (% of ctl) (Aβ1-40; [5]) | activity at 100 µM (Aβ1-42 [4]) [%]
CC(CCc1ccccc1)NCC(O)c1ccc(O)c(C(N)=O)c1 (stereo not drawn) [Labetalol Hydrochloride] | 164.0 % of ctl | −5.0 | 164.0 % of ctl | 93.0 % of ctl | 93.0 % of ctl | 4.06 | 719 | – | 106 | 106 | 84.9 | 84.9 | reduced Aβ1-40 | 719 | – | – | – | – | – | –
CCC[C@H](N[C@@H](C)C(=O)N1[C@H](C(=O)O)C[C@@H]2CCCC[C@@H]21)C(=O)OCC [Perindopril Erbumine] | 72.5 % of ctl | −5.6 | 72.5 % of ctl | 95.3 % of ctl | 95.3 % of ctl | – | 4.05 | no fit | 88.8 | 88.8 | 83.8 | 83.8 | reduced Aβ1-40 | 4.5 | – | no fit | – | – | – | –
CO[C@H]1[C@H](O)[C@H](O[C@H]2CC[C@@]3(C)[C@H](CC[C@@H]4[C@@H]3CC[C@]3(C)[C@@H](C5=CC(=O)OC5)CC[C@]43O)C2)O[C@@H](C)[C@@H]1O [Neriifolin] | 110.8 % of ctl | – | 110.8 % of ctl | 101.2 % of ctl | 101.2 % of ctl | – | – | – | – | – | – | – | reduced Aβ1-40 | – | – | – | 90.3 % of ctl | 79.7 | 79.7 % of ctl | 90.3
CC(NCCC(c1ccccc1)c1ccccc1)c1ccccc1 (stereo not drawn) [Fendiline Hydrochloride] | 1881.4 % of ctl | −3.0 | 1881.4 % of ctl | 7.7 % of ctl | 7.7 % of ctl | 12500 | 42000 | – | 26.2 | 26.2 | 7.9 | 7.9 | reduced Aβ1-40 | – | useful in reducing Aβ1-42 | – | – | – | – | –
OCCN(CCO)c1nc(N2CCCCC2)c2nc(N(CCO)CCO)nc(N3CCCCC3)c2n1 [Dipyridamole] | 107.5 % of ctl | 6.4 | 107.5 % of ctl | 102.7 % of ctl | 102.7 % of ctl | 16600 | 1240 | – | 62.6 | 62.6 | 72.2 | 72.2 | reduced Aβ1-40 | – | useful in reducing Aβ1-42 | – | – | – | – | –
CO[C@H]1[C@H](O)[C@H](O[C@H]2CC[C@@]3(C=O)[C@H](CC[C@@H]4[C@@H]3CC[C@]3(C)[C@@H](C5=CC(=O)OC5)CC[C@]43O)C2)O[C@@H](C)[C@@H]1O [Peruvoside] | 105.5 % of ctl | – | 105.5 % of ctl | 98.8 % of ctl | 98.8 % of ctl | – | – | – | – | – | – | – | – | – | – | – | 90.9 % of ctl | 115 | 115.3 % of ctl | 90.9
COc1ccc(CCN(C)CCCC(C#N)(c2ccc(OC)c(OC)c2)C(C)C)cc1OC (stereo not drawn) [Verapamil] | 92.5 % of ctl | – | 92.5 % of ctl | – | – | – | – | – | – | – | – | – | reduced Aβ1-40 | – | – | – | 101.1 % of ctl | 70.9 | 70.9 % of ctl | 101
COC(=O)[C@H]1[C@H]2C[C@@H]3c4[nH]c5cc(OC)ccc5c4CCN3C[C@H]2C[C@@H](OC(=O)c2cc(OC)c(OC)c(OC)c2)[C@@H]1OC [Reserpine] | 157.8 % of ctl | −3.4 | 157.8 % of ctl | 87.2 % of ctl | 87.2 % of ctl | 56600 | 902000 | – | 38.7 | 38.7 | 24.7 | 24.7 | reduced Aβ1-40 | – | useful in reducing Aβ1-42 | – | – | – | – | –
O=c1oc2c(O)c(O)cc3c(=O)oc4c(O)c(O)cc1c4c23 [Ellagic Acid] | 109.2 % of ctl | – | 109.2 % of ctl | 85.2 % of ctl | 85.2 % of ctl | – | – | – | 94 | 94 | 96.6 | 96.6 | – | – | – | – | – | – | – | –
COCCc1ccc(OCC(O)CNC(C)C)cc1 (stereo not drawn) [Metoprolol Tartrate] | 107.5 % of ctl | – | 107.5 % of ctl | 94.7 % of ctl | 94.7 % of ctl | – | – | – | 104 | 104 | 91.4 | 91.4 | – | – | – | – | – | – | – | –

More lines, main results first:

LDH (% of ctl) [2, 5] | LDH at E-5M % of change [2] [%] | LDH (% of ctl) [2, 7] | MTT (% of ctl) [3, 5] | MTT (% of ctl) [3, 7] | EC50 (Aβ1-40; [10]) [nM] | EC50 (Aβ1-42 [4]; [12]) [nM] | EC50 (molar) Aβ1-40 (Aβ1-40; [12]) | Structure (SMILES) | activity at 100 µM (Aβ1-42 [1]; [5]) [%] | activity at 100 µM (Aβ1-42 [1]; [6]) [%] | activity at 100 µM (Aβ1-40; [8]) [%] | activity at 100 µM (Aβ1-40; [9]) [%] | reduced Aβ1-40 (Aβ1-40; primary screening) | EC50 (Aβ1-42 [4]; [11]) [nM] | reducing Aβ1-42 (Aβ1-42 [1]; primary screening) | EC50 (molar) Aβ1-40 (Aβ1-40; [11]) | Ab1-42 (% of ctl) (Aβ1-42 [1]; [5]) | activity at 100 µM (Aβ1-40; [6]) [%] | Ab1-40 (% of ctl) (Aβ1-40; [5]) | activity at 100 µM (Aβ1-42 [4]) [%]
107.8 % of ctl | 6.0 | 107.8 % of ctl | 82.7 % of ctl | 82.7 % of ctl | – | 0.00708 | no fit | COC(=O)[C@@H]1[C@H]2C[C@H]3c4[nH]c5ccccc5c4CCN3C[C@@H]2CC[C@@H]1O [Yohimbine Hydrochloride] | 68.9 | 68.9 | 66.2 | 66.2 | reduced Aβ1-40 | – | useful in reducing Aβ1-42 | – | – | – | – | –
94.3 % of ctl | 5.0 | 94.3 % of ctl | 100.8 % of ctl | 100.8 % of ctl | 822000 | 1600 | – | CCOC(=O)C1=C(C)NC(C)=C(C(=O)OC)C1c1cccc([N+](=O)[O-])c1 (stereo not drawn) [Nitrendipine] | 64 | 64 | 33 | 33 | – | 1600 | – | – | – | – | – | –
109.4 % of ctl | – | 109.4 % of ctl | 98.0 % of ctl | 98.0 % of ctl | – | – | – | COC(=O)[C@H]1[C@H]2C[C@H]3c4[nH]c5ccccc5c4CCN3C[C@H]2CC[C@@H]1O [Rauwolscine Hydrochloride] | 74.3 | 74.3 | 103 | 103 | – | – | useful in reducing Aβ1-42 | – | – | – | – | –
96.4 % of ctl | – | 96.4 % of ctl | 102.9 % of ctl | 102.9 % of ctl | – | – | – | CCOC(=O)[C@H](CCc1ccccc1)N[C@@H](C)C(=O)N1[C@H](C(=O)O)C[C@@H]2CCC[C@@H]21 [Ramipril] | 105 | 105 | 107 | 107 | – | – | – | – | – | – | – | –
97.1 % of ctl | – | 97.1 % of ctl | 103.4 % of ctl | 103.4 % of ctl | – | – | – | COc1ccccc1N1CCN(CCCNc2cc(=O)n(C)c(=O)n2C)CC1 [Urapidil] | 114 | 114 | 96.4 | 96.4 | – | – | – | – | – | – | – | –
